In patent US20180243421A1, “IMMUNOSTIMULATING AGENT” (AJINOMOTO CO., INC., priority 2015, published 2018):

What was measured:
[1] = test system: anti-OVA-specific IgE antibody; conditions: mouse, in vivo
Procedure: The serum sample obtained in Example 1 was measured for an anti-OVA-specific IgE antibody. The measurement method of the anti-OVA-specific IgE antibody in Example 3 and Examples 6, 9 is as follows.
Measurement Method of anti-OVA-specific IgE Antibody
DS mouse IgE ELISA (OVA) kit manufactured by DS Pharma Biomedical Co., Ltd. was used. The protocol is briefly shown below.
The serum sample and a standard reagent for drawing an analytical curve are diluted with a buffer and, after stirring, left standing at room temperature for 10 min. The sample and the standard solution are added to a plate bound with an IgE capture antibody in advance and, after stirring, the mixture is left standing at room temperature for 60 min. The mixture is washed three times with wash, HRP-labeled OVA is added, and the mixture is left standing at room temperature for 30 min. The mixture is washed three times with wash, a substrate solution is added, and the mixture is left standing in dark at room temperature for 30 min. A reaction quenching liquid is added, the mixture is stirred, and the absorbance (OD Value=450 nm) is immediately measured.
This test was performed in the same manner as in Example 3 except that N^2-hexadecanoyl-L-arginine (SZ61), N-hexadecanoylagmatine (SZ62), N^2-hexadecanoyl-L-arginine methyl ester hydrochloride (SZ63), N^2-octadecanoyl-L-glutamine tert-butyl ester (SZ64), and N^2-octadecanoyl-L-glutamine (SZ65) were used.
This test was performed in the same manner as in Example 6 except that N-hexadecanoylagmatine (SZ62), N^2-octadecanoyl-L-glutamine tert-butyl ester (SZ64), N-docosanoyl-L-leucine methyl ester (SZ70), and N-docosanoyl-L-phenylalanine methyl ester (SZ71) were used and a positive control adjuvant Addavax™ (InvivoGen) administration group was formed.
(§1) The allergy inducing activity test was performed in the same manner as in Example 3 except that Addavax™, N-(2-octadecyleicosanoyl)-L-leucine methyl ester (SZ86), N-hexadecanoyl-L-leucinamide (SZ90), N^2-hexadecanoyl-N^1,N^1-diethyl-L-leucinamide (SZ92), N^2-hexadecanoyl-L-arginine hexyl ester hydrochloride (SZ99) and N^2-docosanoyl-N^1,N^1-diethyl-L-glutamic acid 1-amide (SZ106) were used.
as §1, with “N-hexadecanoyl-L-leucine” for “N^2-hexadecanoyl-L-arginine”, “(SZ97),” for “hydrochloride (SZ99) and”, “(SZ106) and N-docosanoylagmatine hydrochloride (SZ108)” for “(SZ106)”
8-Week-old female BALB/c mice were divided into groups (N=6), and each group was primarily immunized by dorsal-subcutaneous administration of (1) ovalbumin (OVA) (5 μg) dissolved in saline as an antigen (OVA single administration group), (2) OVA (10 μg) and aluminum hydroxide salt dissolved in saline (Alum administration group), (3) OVA 10 μg and Addavax™ (mixed with saline at 1:1) dissolved in saline (Addavax™ administration group), (4) OVA 10 μg and CpG 5 μg dissolved in saline (CpG administration group), (5) OVA 10 μg and MPL 5 μg dissolved in saline (MPL administration group), (6) OVA (5 μg) and SZ62 (0.256 μmol) dissolved or dispersed in 5% αCD-added saline (SZ62 administration group), (7) OVA (5 μg), SZ62 (0.256 μmol) and CpG 5 μg dissolved or dispersed in 5% αCD-added saline (SZ62+CpG administration group), (8) OVA 10 μg, Addavax™ (mixed with saline at 1:1) and CpG 5 μg dissolved in saline (Addavax™+CpG administration group), (9) OVA (5 μg), SZ62 (0.256 μmol) and MPL 5 μg dissolved or dispersed in 5% αCD-added saline (SZ62+MPL administration group), (10) OVA (10 μg), aluminum hydroxide salt (Alum) and MPL 5 μg dissolved in saline (Alum+MPL administration group), each per mouse. One week later, the secondary immunization was carried out by dorsal-subcutaneous administration of solutions or dispersions similar to those of the above-mentioned (1) to (10) again.

[2] = test system: anti-OVA-specific IgG1 subclass antibody; assay: Adjuvant activity: anti-OVA-specific IgG1 subclass antibody in serum after secondary immunization (Examples 1, 5, 7, 8; ELISA absorbance); type: in vivo, BALB/c mice
Procedure: Two weeks from the secondary immunization, the whole blood was extracted under anesthesia, and the obtained serum sample was measured for anti-OVA-specific IgG1 subclass antibody.
A method for measurement of the anti-OVA-specific IgG1 subclass antibody in Example 1, and the following Examples 5, 7 and 8 is as follows.
Measurement Method of anti-OVA-specific IgG1 Subclass Antibody
To a 96 well plate was added 5 μg/ml OVA at 100 μl/well, and the mixture was incubated at 4° C. overnight. After incubation, the mixture was washed three times with 200 μl of PBS-T (PBS+0.05%(v/v) Tween 20) per well, and blocked with 100 μl of 5% FCS/PBS solution per well at room temperature for 1 to 2 hr. Thereafter, the mixture was washed three times with PBS-T (200 μl/well), a diluted serum sample (100 μl/well) or the same amount of 5% FCS/PBS solution as a control was added, and the mixture was incubated at 37° C. for 1 hr. Thereafter, the mixture was washed five times with PBS-T (200 μl/well), a diluted biotinylated anti-mouse IgG1 antibody (100 μl/well) was added, and the mixture was incubated at 37° C. for 45 min. Thereafter, the mixture was washed five times with PBS-T (200 μl/well), a diluted anti-biotin-HRP antibody was added (100 μl/well), and the mixture was incubated at 37° C. for another 30 min. Thereafter, the mixture was washed five times with PBS-T (200 μl/well), TMB substrate solution was added (100 μl/well), and the mixture was incubated at room temperature for 10 to 15 min. Thereafter, a reaction quenching liquid (2N sulfuric acid solution) was added (50 μl/well) to discontinue a color developing reaction, and the absorbance (OD Value=450 nm) was measured by a microplate reader.

[3] = Example 5, same manner as Example 1
[4] = Example 8, same manner as Example 7
[5] = Example 7, same manner as Example 1, plus Addavax group

| Compound | anti-OVA-specific IgE antibody production as compared to the OVA single administration group [1] | adjuvant activity (IgG1) compared with Alum ([2]; Example 8) | anti-OVA-specific IgG1 subclass antibody production as compared to the OVA single administration group [2, 4] | adjuvant activity (IgG1) compared with Alum ([2]; Example 7) | anti-OVA-specific IgG1 subclass antibody production as compared to the OVA single administration group [2, 5] | further results |
| --- | --- | --- | --- | --- | --- | --- |
| CCCCCCCCCCCCCCCC(=O)N[C@@H](CCCNC(=N)N)C(=O)O [SZ61, N^2-hexadecanoyl-L-arginine] | a significant increase in the anti-OVA-specific IgE antibody production was not observed | – | – | – | – | allergy inducing activity as compared to aluminum hydroxide gel adjuvant [1]: lower allergy inducing activity |
| CCCCCCCCCCCCCCCC(=O)N[C@@H](CCCNC(=N)N)C(=O)OC.Cl [SZ63, N^2-hexadecanoyl-L-arginine methyl ester hydrochloride] | a significant increase in the anti-OVA-specific IgE antibody production was not observed | equivalent to or not less than that of Alum | significantly increased | – | – | allergy inducing activity as compared to aluminum hydroxide gel adjuvant [1]: lower allergy inducing activity; adjuvant activity (IgG1) compared with Alum ([2]; Example 5): equivalent to or not less than that of Alum; anti-OVA-specific IgG1 subclass antibody production as compared to the OVA single administration group [2, 3]: significantly increased |
| CCCCCCCCCCCCCCCCCC(=O)N[C@@H](CCC(N)=O)C(=O)OC(C)(C)C [SZ64, N^2-octadecanoyl-L-glutamine tert-butyl ester] | a significant increase in the anti-OVA-specific IgE antibody production was not observed | equivalent to or not less than that of Alum | significantly increased | – | – | allergy inducing activity as compared to aluminum hydroxide gel adjuvant [1]: lower allergy inducing activity; allergy inducing activity as compared to aluminum hydroxide gel adjuvant and Addavax [1]: lower allergy inducing activity; adjuvant activity (IgG1) compared with Alum ([2]; Example 5): equivalent to or not less than that of Alum; anti-OVA-specific IgG1 subclass antibody production as compared to the OVA single administration group [2, 3]: significantly increased |
| CCCCCCCCCCCCCCCCCC(=O)N[C@@H](CCC(N)=O)C(=O)O [SZ65, N^2-octadecanoyl-L-glutamine] | a significant increase in the anti-OVA-specific IgE antibody production was not observed | – | – | – | – | allergy inducing activity as compared to aluminum hydroxide gel adjuvant [1]: lower allergy inducing activity; adjuvant activity (IgG1) compared with Alum ([2]; Example 5): equivalent to or not less than that of Alum; anti-OVA-specific IgG1 subclass antibody production as compared to the OVA single administration group [2, 3]: significantly increased |
| CCCCCCCCCCCCCCCCCCCCCC(=O)NCC(=O)OC [SZ69, N-docosanoyl glycine methyl ester] | – | – | – | equivalent to or not less than that of Alum | significantly increased | – |
| CCCCCCCCCCCCCCCCCCCCCC(=O)N[C@@H](CCC(=O)O)C(=O)OC [SZ72, N-docosanoyl-L-glutamic acid 1-methyl ester] | – | – | – | equivalent to or not less than that of Alum | significantly increased | – |
| CCCCCCCCCCCCCCCCCCCCCC(=O)N[C@@H](CCCCN)C(=O)OC.O=C(O)C(F)(F)F [SZ73, N^2-docosanoyl-L-lysine methyl ester trifluoroacetic acid salt] | – | – | – | equivalent to or not less than that of Alum | significantly increased | – |
| CCCCCCCCCCCCCCCCCCCCCC(=O)N[C@H](C(=O)OC)[C@@H](C)CC [SZ76, N-docosanoyl-L-isoleucine methyl ester] | – | – | – | equivalent to or not less than that of Alum | significantly increased | – |
| CCCCCCCCCCCCCCCCCCCCCC(=O)N[C@H](C(=O)OC)C(C)C [SZ77, N-docosanoyl-L-valine methyl ester] | – | – | – | equivalent to or not less than that of Alum | significantly increased | – |
| CCCCCCCCCCCCCCCC(=O)NCC(=O)OC [SZ78, N-hexadecanoyl glycine methyl ester] | – | equivalent to or not less than that of Alum | a significant difference was not found | – | – | anti-OVA-specific IgG1 subclass antibody production compared with Alum ([2]; Example 8): equivalent to that of Alum |
| CCCCCCCCCCCCCCCC(=O)N[C@@H](CC(C)C)C(=O)OC [SZ79, N-hexadecanoyl-L-leucine methyl ester] | – | equivalent to or not less than that of Alum | a significant difference was not found | – | – | anti-OVA-specific IgG1 subclass antibody production compared with Alum ([2]; Example 8): equivalent to that of Alum |
| CCCCCCCCCCCCCCCC(=O)N[C@@H](Cc1ccccc1)C(=O)OC [SZ80, N-hexadecanoyl-L-phenylalanine methyl ester] | – | equivalent to or not less than that of Alum | significantly increased | – | – | – |
| CCCCCCCCCCCCCCCC(=O)N[C@@H](CCCCN)C(=O)OC.O=C(O)C(F)(F)F [SZ81, N^2-hexadecanoyl-L-lysine methyl ester trifluoroacetic acid salt] | – | equivalent to or not less than that of Alum | a significant difference was not found | – | – | anti-OVA-specific IgG1 subclass antibody production compared with Alum ([2]; Example 8): equivalent to that of Alum |
| CCCCCCCCCCCCCCCC(=O)N[C@@H](CCC(=O)O)C(=O)OC [SZ82, N-hexadecanoyl-L-glutamic acid 1-methyl ester] | – | equivalent to or not less than that of Alum | significantly increased | – | – | – |
| Alum [reference compound] | significantly increased | – | – | – | – | – |
